Calls of active or inactive are those of the source. The calls are words filed in the database; no cut-off is given here.
Assays:
L6 = assay: Cytotoxicity against rat L6 cells assessed as decrease in cell viability after 72 hrs by resazurin dye based fluorescence analysis; conditions: for IC50: Rattus norvegicus, L6, 72 h; for Activity: rat, l6, 72 h
[1] = Selectivity index, ratio of IC50 for rat L6 cells to IC50 for adult Schistosoma mansoni
Schistosoma mansoni [2] = assay: Antischistosomal activity against newly transformed Schistosoma mansoni cercariae assessed as decrease in viability after 72 hrs by microscopic analysis; type: functional, organism-based
Schistosoma mansoni [3] = assay: Antischistosomal activity against adult Schistosoma mansoni assessed as decrease in viability after 72 hrs by microscopic analysis; type: functional, organism-based
Schistosoma mansoni [4] = assay: Antischistosomal activity against adult Schistosoma mansoni assessed as decrease in viability at 25 ug/ml after 72 hrs by microscopic analysis; type: functional, organism-based
Schistosoma mansoni [5] = assay: Antischistosomal activity against Schistosoma mansoni strain Liberian cercariae infected in NMRI mouse assessed as reduction of worm burden in portal and mesenteric veins and liver at 400 mg/kg, po treated after 49 days of infection measured 16 to 21 days post treatment; type: functional
Schistosoma mansoni [6] = assay: Antischistosomal activity against newly transformed Schistosoma mansoni cercariae assessed as decrease in viability at 12.5 ug/ml after 72 hrs by microscopic analysis; type: functional, organism-based

| Compound | IC50 (L6) | Ratio IC50 [1] | IC50 (Schistosoma mansoni [2]) | IC50 (Schistosoma mansoni [3]) | Activity (L6) | inhibition (Schistosoma mansoni [4]) | inhibition in vivo at 400 mg/kg (Schistosoma mansoni [5]) | inhibition (Schistosoma mansoni [6]) |
| --- | --- | --- | --- | --- | --- | --- | --- | --- |
| CC(C)C[C@]12OO[C@](C)(OO1)C2C12CC3CC(CC(C3)C1)C2 (some centres undefined) | 1 µM | 0.5 | 0.9 µM | 1.8 µM | – | – | – | – |
| CC(=O)CCC1(Cc2ccccc2)[C@]2(C)OO[C@@]1(C)OO2 (some centres undefined) | – | – | 1.6 µM | 10.9 µM | Non-toxic | – | – | – |
| CC(C)(C)C1CCC2(CC1)OO[Si](C)(C)CC[Si](C)(C)OO2 | – | – | 4 µM | – | Non-toxic | inactive | – | – |
| CC(=O)CCC1(Cc2ccc(Br)cc2)[C@]2(C)OO[C@@]1(C)OO2 (some centres undefined) | 2.5 µM | 0.4 | 1.3 µM | 8.4 µM | – | – | – | – |
| CC(=O)[C@@]1(Cc2ccccc2)CC[C@]2(C)OO[C@@]1(C)O2 | – | – | 5.6 µM | 10.3 µM | Non-toxic | – | – | – |
| C[C@]12C[C@](C34CC5CC(CC(C5)C3)C4)(OO1)OO2 | < 0.4 µM | <0.2 | 1.3 µM | 2 µM | – | – | – | – |
| CC(=O)[C@@]1(Cc2ccc(Br)cc2)CC[C@]2(C)OO[C@@]1(C)O2 | 8.1 µM | 1.6 | 2.2 µM | 4.2 µM | – | – | 44.3% | – |
| CC(=O)CCC1(Cc2ccc(C)cc2)[C@]2(C)OO[C@@]1(C)OO2 (some centres undefined) | 2.5 µM | 0.3 | 5.2 µM | 9.8 µM | – | – | – | – |
| CC(=O)[C@@]1(Cc2ccc([N+](=O)[O-])cc2)CC[C@]2(C)OO[C@@]1(C)O2 | – | – | 7.7 µM | 22.8 µM | Non-toxic | – | – | – |
| C[Si]1(C)CC[Si](C)(C)OOC2(CCCCCCCCCCC2)OO1 | – | – | 7.2 µM | – | Non-toxic | inactive | – | – |
| CC(=O)[C@]1(Cc2ccc([N+](=O)[O-])cc2)CC[C@]2(C)OO[C@@]1(C)O2 | 22.7 µM | 1.7 | 5.7 µM | 7 µM | – | – | – | – |
| CC[C@]12OO[C@@]3(CC(C)C)OC(C)(CCC31)O2 | 24.4 µM | 5.7 | 2.7 µM | 4.4 µM | – | – | 26.7% | – |
| CC(=O)[C@@]1(Cc2ccc(C)cc2)CC[C@]2(C)OO[C@@]1(C)O2 | 15.3 µM | 7.4 | 12.2 µM | 7.4 µM | – | – | 9.9% | – |
| CC(=O)CCC1(Cc2ccc(Cl)cc2)[C@]2(C)OO[C@@]1(C)OO2 (some centres undefined) | – | – | 3.5 µM | 15.4 µM | Non-toxic | – | – | – |
| CC(=O)[C@@]1(Cc2ccc(Cl)cc2)CC[C@]2(C)OO[C@@]1(C)O2 | – | – | 3.2 µM | 11.2 µM | Non-toxic | – | – | – |
| CC(=O)[C@]1(Cc2ccccc2)CC[C@]2(C)OO[C@@]1(C)O2 | 5.4 µM | 2.9 | 0.4 µM | 1.8 µM | – | – | 6.2% | – |
| CC1[C@]2(C)OO[C@@]1(C13CC4CC(CC(C4)C1)C3)OO2 (some centres undefined) | < 0.4 µM | <0.1 | 4 µM | 3.9 µM | – | – | – | – |
| CC(=O)[C@]1(Cc2ccc(Br)cc2)CC[C@]2(C)OO[C@@]1(C)O2 | 7.3 µM | 1.1 | 6.2 µM | 6.6 µM | – | – | – | – |
| CC(=O)[C@]1(Cc2ccc(C)cc2)CC[C@]2(C)OO[C@@]1(C)O2 | – | – | – | 10 µM | Non-toxic | – | – | inactive |
| CCCC[C@]1(C(C)=O)CCC2(C)OOC1(C)O2 (single isomer, unassigned) | – | – | – | 12.2 µM | Non-toxic | – | – | inactive |
| CC(C)C[C@@]12OO[C@]3(C)OC(C)(CCC31)O2 | 4.9 µM | 3 | 2 µM | 2 µM | – | – | 0% | – |
| CC[C@]12C[C@](C34CC5CC(CC(C5)C3)C4)(OO1)OO2 | < 0.4 µM | <0.2 | 1.8 µM | 2 µM | – | – | – | – |
| CC(=O)[C@]1(Cc2ccc(Cl)cc2)CC[C@]2(C)OO[C@@]1(C)O2 | 2.7 µM | 1.3 | 2.8 µM | 4.2 µM | – | – | 42.9% | – |
